#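 Briefly, cells in 96-well plates were exposed to five compound concentrations for 48 h, and endpoints were estimated by linear interpolation. GI50 marks 50% less growth. The concentration for full growth arrest is given as TGI.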
# Columns and labels:
# Test in all cases: DTP human tumour cell line panel, 48 h
# 786-0 renal = tested on: 786-0 renal
# A498 renal = tested on: A498 renal
# A549 NSCLC = tested on: A549 NSCLC
# ACHN renal = tested on: ACHN renal
# BT-549 breast = tested on: BT-549 breast
# CAKI-1 renal = tested on: CAKI-1 renal
# CCRF-CEM leukemia = tested on: CCRF-CEM leukemia
# COLO 205 colon = tested on: COLO 205 colon
# DU-145 prostate = tested on: DU-145 prostate
# EKVX NSCLC = tested on: EKVX NSCLC
# HCC-2998 colon = tested on: HCC-2998 colon
# HCT-116 colon = tested on: HCT-116 colon
# HCT-15 colon = tested on: HCT-15 colon
# HL-60(TB) leukemia = tested on: HL-60(TB) leukemia
# HOP-62 NSCLC = tested on: HOP-62 NSCLC
# HOP-92 NSCLC = tested on: HOP-92 NSCLC
# HS 578T breast = tested on: HS 578T breast
# HT29 colon = tested on: HT29 colon
# IGROV1 ovarian = tested on: IGROV1 ovarian
# K-562 leukemia = tested on: K-562 leukemia
# KM12 colon = tested on: KM12 colon
# LOX IMVI melanoma = tested on: LOX IMVI melanoma
# M14 melanoma = tested on: M14 melanoma
# MALME-3M melanoma = tested on: MALME-3M melanoma
# MCF7 breast = tested on: MCF7 breast
# MDA-MB-231 breast = tested on: MDA-MB-231 breast
# MDA-MB-435 = tested on: MDA-MB-435
# MDA-MB-468 breast = tested on: MDA-MB-468 breast
# MOLT-4 leukemia = tested on: MOLT-4 leukemia
# NCI-H226 lung = tested on: NCI-H226 lung
# NCI-H23 lung = tested on: NCI-H23 lung
# NCI-H460 lung = tested on: NCI-H460 lung
# NCI-H522 lung = tested on: NCI-H522 lung
# OVCAR-3 ovarian = tested on: OVCAR-3 ovarian
# OVCAR-4 ovarian = tested on: OVCAR-4 ovarian
# OVCAR-5 ovarian = tested on: OVCAR-5 ovarian
# OVCAR-8 ovarian = tested on: OVCAR-8 ovarian
# PC-3 prostate = tested on: PC-3 prostate
# RPMI-8226 leukemia = tested on: RPMI-8226 leukemia
# RXF 393 renal = tested on: RXF 393 renal
# SF-268 CNS = tested on: SF-268 CNS
# SF-295 CNS = tested on: SF-295 CNS
# SF-539 CNS = tested on: SF-539 CNS
# SK-MEL-2 melanoma = tested on: SK-MEL-2 melanoma
# SK-MEL-28 melanoma = tested on: SK-MEL-28 melanoma
# SK-MEL-5 melanoma = tested on: SK-MEL-5 melanoma
# SK-OV-3 ovarian = tested on: SK-OV-3 ovarian
# SN12C renal = tested on: SN12C renal
# SNB-19 CNS = tested on: SNB-19 CNS
# SNB-75 CNS = tested on: SNB-75 CNS
# SR leukemia = tested on: SR leukemia
# SW-620 colon = tested on: SW-620 colon
# T-47D breast = tested on: T-47D breast
# TK-10 renal = tested on: TK-10 renal
# U251 CNS = tested on: U251 CNS
# UACC-257 melanoma = tested on: UACC-257 melanoma
# UACC-62 melanoma = tested on: UACC-62 melanoma
# UO-31 renal = tested on: UO-31 renal
compound,measurement,setting,value
CC(=O)Oc1ccccc1C(=O)NC([Se])=NC1CCCCC1,GI50,786-0 renal,1.72 µM
same,TGI,786-0 renal,3.28 µM
same,GI50,A498 renal,2.41 µM
same,TGI,A498 renal,7.58 µM
same,GI50,A549 NSCLC,3.3 µM
same,TGI,A549 NSCLC,23 µM
same,GI50,ACHN renal,9.75 µM
same,TGI,ACHN renal,25.8 µM
same,GI50,BT-549 breast,3.3 µM
same,TGI,BT-549 breast,11.3 µM
same,GI50,CAKI-1 renal,3.07 µM
same,TGI,CAKI-1 renal,11.5 µM
same,GI50,CCRF-CEM leukemia,5.25 µM
same,TGI,CCRF-CEM leukemia,29.4 µM
same,GI50,COLO 205 colon,17.1 µM
same,TGI,COLO 205 colon,31.4 µM
same,GI50,DU-145 prostate,3.22 µM
same,TGI,DU-145 prostate,10.2 µM
same,GI50,EKVX NSCLC,2.12 µM
same,TGI,EKVX NSCLC,4.93 µM
same,GI50,HCC-2998 colon,2.28 µM
same,TGI,HCC-2998 colon,5.11 µM
same,GI50,HCT-116 colon,3.18 µM
same,TGI,HCT-116 colon,12.6 µM
same,GI50,HCT-15 colon,3.43 µM
same,TGI,HCT-15 colon,11.6 µM
same,GI50,HL-60(TB) leukemia,18.2 µM
same,TGI,HL-60(TB) leukemia,> 100 µM
same,GI50,HOP-62 NSCLC,3.35 µM
same,TGI,HOP-62 NSCLC,13.4 µM
same,GI50,HOP-92 NSCLC,2.34 µM
same,TGI,HOP-92 NSCLC,6.52 µM
same,GI50,HS 578T breast,2.67 µM
same,TGI,HS 578T breast,9.16 µM
same,GI50,HT29 colon,4.87 µM
same,TGI,HT29 colon,28.7 µM
same,GI50,IGROV1 ovarian,2.02 µM
same,TGI,IGROV1 ovarian,3.98 µM
same,GI50,K-562 leukemia,26.1 µM
same,TGI,K-562 leukemia,> 100 µM
same,GI50,KM12 colon,3.42 µM
same,TGI,KM12 colon,11.7 µM
same,GI50,LOX IMVI melanoma,1.96 µM
same,TGI,LOX IMVI melanoma,4.26 µM
same,GI50,M14 melanoma,2.43 µM
same,TGI,M14 melanoma,5.7 µM
same,GI50,MALME-3M melanoma,16.7 µM
same,TGI,MALME-3M melanoma,30.3 µM
same,GI50,MCF7 breast,2.24 µM
same,TGI,MCF7 breast,6.8 µM
same,GI50,MDA-MB-231 breast,1.96 µM
same,TGI,MDA-MB-231 breast,3.77 µM
same,GI50,MDA-MB-435,7.88 µM
same,TGI,MDA-MB-435,20.9 µM
same,GI50,MDA-MB-468 breast,7.37 µM
same,TGI,MDA-MB-468 breast,20.7 µM
same,GI50,MOLT-4 leukemia,10.8 µM
same,TGI,MOLT-4 leukemia,98.8 µM
same,GI50,NCI-H226 lung,2.56 µM
same,TGI,NCI-H226 lung,9.46 µM
same,GI50,NCI-H23 lung,2.24 µM
same,TGI,NCI-H23 lung,5.35 µM
same,GI50,NCI-H460 lung,2.62 µM
same,TGI,NCI-H460 lung,7.24 µM
same,GI50,NCI-H522 lung,15.6 µM
same,TGI,NCI-H522 lung,30 µM
same,GI50,OVCAR-3 ovarian,12.4 µM
same,TGI,OVCAR-3 ovarian,25.9 µM
same,GI50,OVCAR-4 ovarian,4.35 µM
same,TGI,OVCAR-4 ovarian,16.9 µM
same,GI50,OVCAR-5 ovarian,2.07 µM
same,TGI,OVCAR-5 ovarian,5.15 µM
same,GI50,OVCAR-8 ovarian,1.95 µM
same,TGI,OVCAR-8 ovarian,3.73 µM
same,GI50,PC-3 prostate,2.63 µM
same,TGI,PC-3 prostate,8.24 µM
same,GI50,RPMI-8226 leukemia,2.63 µM
same,TGI,RPMI-8226 leukemia,7.61 µM
same,GI50,RXF 393 renal,1.65 µM
same,TGI,RXF 393 renal,3.34 µM
same,GI50,SF-268 CNS,13.7 µM
same,TGI,SF-268 CNS,31.2 µM
same,GI50,SF-295 CNS,2.24 µM
same,TGI,SF-295 CNS,5.08 µM
same,GI50,SF-539 CNS,1.84 µM
same,TGI,SF-539 CNS,3.46 µM
same,GI50,SK-MEL-2 melanoma,2.35 µM
same,TGI,SK-MEL-2 melanoma,5.29 µM
same,GI50,SK-MEL-28 melanoma,3.59 µM
same,TGI,SK-MEL-28 melanoma,13.1 µM
same,GI50,SK-MEL-5 melanoma,1.63 µM
same,TGI,SK-MEL-5 melanoma,3.07 µM
same,GI50,SK-OV-3 ovarian,2.84 µM
same,TGI,SK-OV-3 ovarian,7.5 µM
same,GI50,SN12C renal,1.99 µM
same,TGI,SN12C renal,4.41 µM
same,GI50,SNB-19 CNS,3.28 µM
same,TGI,SNB-19 CNS,11.7 µM
same,GI50,SNB-75 CNS,1.71 µM
same,TGI,SNB-75 CNS,5.87 µM
same,GI50,SR leukemia,3.11 µM
same,TGI,SR leukemia,14.4 µM
same,GI50,SW-620 colon,10.2 µM
same,TGI,SW-620 colon,23.6 µM
same,GI50,T-47D breast,12.5 µM
same,TGI,T-47D breast,30.2 µM
same,GI50,TK-10 renal,12.1 µM
same,TGI,TK-10 renal,24.7 µM
same,GI50,U251 CNS,2.35 µM
same,TGI,U251 CNS,6.24 µM
same,GI50,UACC-257 melanoma,2.93 µM
same,TGI,UACC-257 melanoma,10.2 µM
same,GI50,UACC-62 melanoma,1.79 µM
same,TGI,UACC-62 melanoma,3.89 µM
same,GI50,UO-31 renal,1.62 µM
same,TGI,UO-31 renal,3.03 µM
